{
  "source": "patent US5482975A",
  "about": "“Adenosine diphosphoribose polymerase binding nitroso aromatic compounds useful as retroviral inactivating agents, anti-retroviral agents and anti-tumor agents” (priority 1993, dated 1996)",
  "key": {"[1]": {"tested_on": "normal rhesus bone marrow stem cells", "assay": "CFU stem cell toxicity assay (FIG. 5A)", "conditions": "10 μM"}, "HIV-1 (LAV strain)": {"tested_on": "HIV-1 (LAV strain)", "assay": "HIV-1 inactivation assay in PBL cultures (FIG. 13A, B)", "assay_type": "cell-based", "conditions": "NOBA versus NOBP", "procedure": "The assay was performed as described in FIG. 13A except that the 30 min. preincubation of virus with NOBA was carried out at 0>, 22° or 37° C.\nAn HIV-1 stock having an infectivity titer of 100,000 TCID50 was incubated for 30 min. at 22° C. with either of the drugs. Control HIV samples, containing no drugs, were incubated in the same manner. […] At the end of this incubation cultures were assayed for productive infection by an immunoassay for HIV-1 antigens and by reverse transcriptase as described in McDougal, et al., J. Immunol Methods 76:171-183 (1985). Virus titers were expressed as percentile values (percent infected cultures) compared to the controls, containing HIV dilutions which were not preincubated with the C-nitroso drugs. In a separate series of experiments, HIV-1 dilutions and C-nitroso drugs (see upper abscissa) were not preincubated but were added simultaneously to lymphocytes in exactly the same concentrations as described previously (i.e., following preincubation) and viral growth monitored 9 days later. […] Chem. Soc. 111:395-396 (1989), South, et al., Biochem Pharm. 40:123-129 (1990), Summers, et al., Biochemistry 29:329-340 (1990), the inhibition of HIV-1 propagation was profound when C-nitroso drugs were preincubated with HIV-1, whereas only negligible effect on HIV-1 growth occurred when both drugs and virus were added simultaneously. […]"}, "Human Neutrophils": {"tested_on": "Human Neutrophils", "assay": "superoxide generation by human neutrophils", "conditions": "10 μM"}, "[2]": {"tested_on": "HIV-1 (MN strain) virions", "assay": "zinc loss from HIV-1 virions", "assay_type": "biochemical", "procedure": "Experiments were performed to determine if NOBA is capable of ejecting zinc from intact virions. HIV-1(MN strain) was produced, purified and concentrated as described in Bess et al., J. Virol. 66:840-847 (1992). The concentrated virus was diluted to 60 times that of culture fluid in TNE buffer (0.01 M Tris-HCl, 0.1M NaCl, 1 mM EDTA, pH 7.2) and incubated with 3000 or 6000 μM NOBA at 37° C. The virus was then pelleted and washed with TNE buffer to remove weakly bound zinc. The quantity of zinc in the resulting viral pellets was determined as described in Bess et al., J. Virol. 66:840-847 (1992)."}, "L1210 murine leukemia": {"tested_on": "L1210 murine leukemia", "assay": "L1210 murine leukemia in vivo", "set-up": "species or system BDF mice", "conditions": "2 mg/kg i.p. twice a day, 6 consecutive days"}, "[3]": {"tested_on": "normal cells (neutrophil leukocytes and bone marrow or peripheral blood cells)", "assay": "viability / functions of normal cells in presence of compounds", "experimental": "Experiments were performed in which the functions of various cancer cells (855-2 and HL-60 leukemia cells, D32, D37 and CRL 7712 glioblastoma cell lines, 186 medulla tumor cell line, L1210 murine leukemia cell line, MDA-468 human breast tumor cell line) and normal cells (neutrophil leukocytes and bone marrow or peripheral blood stream cells) were assessed in the absence or presence of the compounds."}},
  "data": [
    {"smiles": "NC(=O)c1cccc(N=O)c1", "note": "[NOBA, 3-nitrosobenzamide]", "values": [
      {"measurement": "CFU stem cell toxicity", "setting": "[1]", "value": "non-toxic"},
      {"measurement": "relative depression of HIV-1 propagation", "setting": "HIV-1 (LAV strain)", "value": "greater depression of HIV-1 propagation"},
      {"measurement": "reduction in superoxide generation", "setting": "Human Neutrophils", "value": "Only minor reductions"},
      {"measurement": "Generation of Superoxide by Human Neutrophils", "setting": "Human Neutrophils; mean + S.D., n = 11, PMN + PMA", "value": "44.4 ± 10.0", "unit": "nmol 02^- /hr/10^5 cells"},
      {"measurement": "loss of viral proteins in the pellet", "setting": "[2]; 3000 or 6000 μM, 37° C., p24, gp120 RIA, SDS-PAGE", "value": "No significant loss of viral proteins"},
      {"measurement": "loss of infectivity", "setting": "[2]; concentrated HIV-1 (60x)", "value": "complete loss of infectivity"},
      {"measurement": "losses of viral zinc", "setting": "[2]; concentrated HIV-1 (60x)", "value": "50-83%"},
      {"measurement": "in vivo chemotherapeutic response", "setting": "L1210 murine leukemia", "value": "highly significant in vivo chemotherapeutic response"},
      {"measurement": "toxic effects in mice", "setting": "L1210 murine leukemia", "value": "no toxic effects"},
      {"measurement": "effect on colony formation by normal cells", "setting": "[3]; anti-leukemic doses, rhesus bone marrow and human peripheral blood stem cells, FIG. 5", "value": "minimal effect on normal cells"},
      {"measurement": "effect on viability of normal cells", "setting": "[3]; tumor cell inhibitory concentrations", "value": "not to affect adversely the viability of normal cells"}
    ]}
  ]
}
